{"source": "PubChem BioAssay (NCI)", "assay_in_all_cases": "NCI tumour cell line growth inhibition, 48 h", "key": {"SK-MEL-28 melanoma": {"tested_on": "SK-MEL-28 melanoma"}, "SK-MEL-5 melanoma": {"tested_on": "SK-MEL-5 melanoma"}, "M14 melanoma": {"tested_on": "M14 melanoma"}, "T-47D breast": {"tested_on": "T-47D breast"}, "HOP-92 NSCLC": {"tested_on": "HOP-92 NSCLC"}, "MDA-MB-231 breast": {"tested_on": "MDA-MB-231 breast"}, "SK-OV-3 ovarian": {"tested_on": "SK-OV-3 ovarian"}, "K-562 leukemia": {"tested_on": "K-562 leukemia"}, "HCC-2998 colon": {"tested_on": "HCC-2998 colon"}, "MOLT-4 leukemia": {"tested_on": "MOLT-4 leukemia"}, "SR leukemia": {"tested_on": "SR leukemia"}, "EKVX NSCLC": {"tested_on": "EKVX NSCLC"}, "SN12C renal": {"tested_on": "SN12C renal"}, "LOX IMVI melanoma": {"tested_on": "LOX IMVI melanoma"}, "SNB-75 CNS": {"tested_on": "SNB-75 CNS"}, "SK-MEL-2 melanoma": {"tested_on": "SK-MEL-2 melanoma"}, "A498 renal": {"tested_on": "A498 renal"}, "TK-10 renal": {"tested_on": "TK-10 renal"}, "786-0 renal": {"tested_on": "786-0 renal"}, "NCI-H522 lung": {"tested_on": "NCI-H522 lung"}, "MDA-MB-435": {"tested_on": "MDA-MB-435"}, "HS 578T breast": {"tested_on": "HS 578T breast"}, "CCRF-CEM leukemia": {"tested_on": "CCRF-CEM leukemia"}, "UACC-257 melanoma": {"tested_on": "UACC-257 melanoma"}, "OVCAR-3 ovarian": {"tested_on": "OVCAR-3 ovarian"}, "RXF 393 renal": {"tested_on": "RXF 393 renal"}, "IGROV1 ovarian": {"tested_on": "IGROV1 ovarian"}, "OVCAR-8 ovarian": {"tested_on": "OVCAR-8 ovarian"}}, "note": "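Exposure lasted 48 hours, with cells grown in 96-well plates and compounds tested at five concentrations. GI50 is the concentration that inhibits growth by half. At the TGI there is no net growth.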", "data": [{"smiles": "CN(C)CCCNc1c2ccc(Cl)cc2nc2c1oc1ccccc12", "values": [{"measurement": "GI50", "setting": "SK-MEL-28 melanoma", "value": 4.43, "unit": "µM"}, {"measurement": "TGI", "setting": "SK-MEL-28 melanoma", "value": 16.3, "unit": "µM"}, {"measurement": "GI50", "setting": "SK-MEL-5 melanoma", "value": 10.6, "unit": "µM"}, {"measurement": "TGI", "setting": "SK-MEL-5 melanoma", "value": 23.8, "unit": "µM"}, {"measurement": "GI50", "setting": "M14 melanoma", "value": 1.69, "unit": "µM"}, {"measurement": "TGI", "setting": "M14 melanoma", "value": 3.45, "unit": "µM"}, {"measurement": "GI50", "setting": "T-47D breast", "value": 4.84, "unit": "µM"}, {"measurement": "TGI", "setting": "T-47D breast", "value": 23.2, "unit": "µM"}, {"measurement": "GI50", "setting": "HOP-92 NSCLC", "value": 1.34, "unit": "µM"}, {"measurement": "TGI", "setting": "HOP-92 NSCLC", "value": 5.13, "unit": "µM"}, {"measurement": "GI50", "setting": "MDA-MB-231 breast", "value": 2.44, "unit": "µM"}, {"measurement": "TGI", "setting": "MDA-MB-231 breast", "value": 8.61, "unit": "µM"}, {"measurement": "GI50", "setting": "SK-OV-3 ovarian", "value": 3.04, "unit": "µM"}, {"measurement": "TGI", "setting": "SK-OV-3 ovarian", "value": 11.2, "unit": "µM"}, {"measurement": "GI50", "setting": "K-562 leukemia", "value": 2.02, "unit": "µM"}, {"measurement": "TGI", "setting": "K-562 leukemia", "value": 11.7, "unit": "µM"}, {"measurement": "GI50", "setting": "HCC-2998 colon", "value": 1.77, "unit": "µM"}, {"measurement": "TGI", "setting": "HCC-2998 colon", "value": 4.18, "unit": "µM"}, {"measurement": "GI50", "setting": "MOLT-4 leukemia", "value": 0.676, "unit": "µM"}, {"measurement": "TGI", "setting": "MOLT-4 leukemia", "value": 13.2, "unit": "µM"}, {"measurement": "GI50", "setting": "SR leukemia", "value": 2.34, "unit": "µM"}, {"measurement": "TGI", "setting": "SR leukemia", "value": 10.3, "unit": "µM"}, {"measurement": "GI50", "setting": "EKVX NSCLC", "value": 3.51, "unit": "µM"}, {"measurement": "TGI", "setting": "EKVX NSCLC", "value": 21.3, "unit": "µM"}, {"measurement": "GI50", "setting": "SN12C renal", "value": 2.5, "unit": "µM"}, {"measurement": "TGI", "setting": "SN12C renal", "value": 11.6, "unit": "µM"}, {"measurement": "GI50", "setting": "LOX IMVI melanoma", "value": 1.86, "unit": "µM"}, {"measurement": "TGI", "setting": "LOX IMVI melanoma", "value": 4.1, "unit": "µM"}, {"measurement": "GI50", "setting": "SNB-75 CNS", "value": 1.68, "unit": "µM"}, {"measurement": "TGI", "setting": "SNB-75 CNS", "value": 4.66, "unit": "µM"}, {"measurement": "GI50", "setting": "SK-MEL-2 melanoma", "value": 3.29, "unit": "µM"}, {"measurement": "TGI", "setting": "SK-MEL-2 melanoma", "value": 12.6, "unit": "µM"}, {"measurement": "GI50", "setting": "A498 renal", "value": 7.55, "unit": "µM"}, {"measurement": "TGI", "setting": "A498 renal", "value": 21.2, "unit": "µM"}, {"measurement": "GI50", "setting": "TK-10 renal", "value": 4.19, "unit": "µM"}, {"measurement": "TGI", "setting": "TK-10 renal", "value": 22.1, "unit": "µM"}, {"measurement": "GI50", "setting": "786-0 renal", "value": 3.2, "unit": "µM"}, {"measurement": "TGI", "setting": "786-0 renal", "value": 14.2, "unit": "µM"}, {"measurement": "GI50", "setting": "NCI-H522 lung", "value": 2.18, "unit": "µM"}, {"measurement": "TGI", "setting": "NCI-H522 lung", "value": 7.89, "unit": "µM"}, {"measurement": "GI50", "setting": "MDA-MB-435", "value": 1.65, "unit": "µM"}, {"measurement": "TGI", "setting": "MDA-MB-435", "value": 3.32, "unit": "µM"}, {"measurement": "GI50", "setting": "HS 578T breast", "value": 3.53, "unit": "µM"}, {"measurement": "TGI", "setting": "HS 578T breast", "value": 22.2, "unit": "µM"}, {"measurement": "GI50", "setting": "CCRF-CEM leukemia", "value": 2.57, "unit": "µM"}, {"measurement": "TGI", "setting": "CCRF-CEM leukemia", "value": 10.3, "unit": "µM"}, {"measurement": "GI50", "setting": "UACC-257 melanoma", "value": 3.79, "unit": "µM"}, {"measurement": "TGI", "setting": "UACC-257 melanoma", "value": 15.2, "unit": "µM"}, {"measurement": "GI50", "setting": "OVCAR-3 ovarian", "value": 3.45, "unit": "µM"}, {"measurement": "TGI", "setting": "OVCAR-3 ovarian", "value": 15.6, "unit": "µM"}, {"measurement": "GI50", "setting": "RXF 393 renal", "value": 1.64, "unit": "µM"}, {"measurement": "TGI", "setting": "RXF 393 renal", "value": 3.76, "unit": "µM"}, {"measurement": "GI50", "setting": "IGROV1 ovarian", "value": 2.77, "unit": "µM"}, {"measurement": "TGI", "setting": "IGROV1 ovarian", "value": 7.49, "unit": "µM"}, {"measurement": "GI50", "setting": "OVCAR-8 ovarian", "value": 2.42, "unit": "µM"}, {"measurement": "TGI", "setting": "OVCAR-8 ovarian", "value": 7.87, "unit": "µM"}]}]}
